Results from PubChem BioAssay (NCI).
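Assay format: 96-well plates, 48-hour exposure. TGI: concentration producing complete growth inhibition.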

Experiments:
Assay in all cases: growth of human tumour cells (NCI), 48 h
HCT-15 colon = tested on: HCT-15 colon
U251 CNS = tested on: U251 CNS
SK-MEL-2 melanoma = tested on: SK-MEL-2 melanoma
KM12 colon = tested on: KM12 colon
OVCAR-4 ovarian = tested on: OVCAR-4 ovarian
SW-620 colon = tested on: SW-620 colon
MALME-3M melanoma = tested on: MALME-3M melanoma
SNB-75 CNS = tested on: SNB-75 CNS
HT29 colon = tested on: HT29 colon
RXF 393 renal = tested on: RXF 393 renal
NCI-H226 lung = tested on: NCI-H226 lung
OVCAR-3 ovarian = tested on: OVCAR-3 ovarian
SK-MEL-5 melanoma = tested on: SK-MEL-5 melanoma
M14 melanoma = tested on: M14 melanoma
NCI-H23 lung = tested on: NCI-H23 lung
HL-60(TB) leukemia = tested on: HL-60(TB) leukemia
CCRF-CEM leukemia = tested on: CCRF-CEM leukemia
MOLT-4 leukemia = tested on: MOLT-4 leukemia
HOP-62 NSCLC = tested on: HOP-62 NSCLC
IGROV1 ovarian = tested on: IGROV1 ovarian
SK-OV-3 ovarian = tested on: SK-OV-3 ovarian
SF-295 CNS = tested on: SF-295 CNS
ACHN renal = tested on: ACHN renal
SF-539 CNS = tested on: SF-539 CNS
LXFL 529 NSCLC = tested on: LXFL 529 NSCLC
DMS 273 small cell lung = tested on: DMS 273 small cell lung
SK-MEL-28 melanoma = tested on: SK-MEL-28 melanoma
HCC-2998 colon = tested on: HCC-2998 colon
DLD-1 colon = tested on: DLD-1 colon
KM20L2 colon = tested on: KM20L2 colon
UACC-257 melanoma = tested on: UACC-257 melanoma
A498 renal = tested on: A498 renal
EKVX NSCLC = tested on: EKVX NSCLC
CAKI-1 renal = tested on: CAKI-1 renal
NCI-H460 lung = tested on: NCI-H460 lung
M19-MEL melanoma = tested on: M19-MEL melanoma
SNB-78 CNS = tested on: SNB-78 CNS
RPMI-8226 leukemia = tested on: RPMI-8226 leukemia
TK-10 renal = tested on: TK-10 renal
OVCAR-5 ovarian = tested on: OVCAR-5 ovarian
UO-31 renal = tested on: UO-31 renal
OVCAR-8 ovarian = tested on: OVCAR-8 ovarian
A549 NSCLC = tested on: A549 NSCLC
786-0 renal = tested on: 786-0 renal
XF 498 CNS = tested on: XF 498 CNS
HCT-116 colon = tested on: HCT-116 colon
UACC-62 melanoma = tested on: UACC-62 melanoma
K-562 leukemia = tested on: K-562 leukemia
HOP-18 NSCLC = tested on: HOP-18 NSCLC
COLO 205 colon = tested on: COLO 205 colon
SNB-19 CNS = tested on: SNB-19 CNS
SF-268 CNS = tested on: SF-268 CNS
SN12C renal = tested on: SN12C renal
SR leukemia = tested on: SR leukemia
NCI-H522 lung = tested on: NCI-H522 lung
DMS 114 small cell lung = tested on: DMS 114 small cell lung

Measured: TGI

O=C1CC(c2c[nH]c3ccccc23)C(=O)N1c1ccccc1 (stereo not drawn)
not listed: HOP-18 NSCLC | COLO 205 colon | SNB-19 CNS | SF-268 CNS | SN12C renal | SR leukemia | NCI-H522 lung | DMS 114 small cell lung
> 100 µM: all other assays above

C=CCC(C)(C(=O)NCCC)C(=O)c1ccccc1O (stereo not drawn)
not listed: HT29 colon | NCI-H23 lung | SF-295 CNS | EKVX NSCLC | OVCAR-5 ovarian | XF 498 CNS
> 100 µM: all other assays above
